Reference: US20210161997A1, “TREATING DISEASES VIA TARGETED MODULATION OF GENE SIGNALING NETWORKS” (Camp4 Therapeutics Corporation, priority 2018, published 2021)

Columns and labels:
[1] = test system: NOTCH2; assay: RNA-seq of NOTCH2 expression in compound-treated primary human hepatocytes; type: cell-based; conditions: primary human hepatocytes
How it was run: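 Cryopreserved primary human hepatocytes from three donors, switched to serum-free medium 2 h before compound addition, were harvested about 18 h after treatment. Poly(A) mRNA was sequenced and aligned to GENCODE release 24, with DESeq2 negative binomial differential expression. Fold change is the treated level over the unperturbed level.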

[2] = test system: SERPINC1; assay: RNA-seq of SERPINC1 expression in compound-treated primary human hepatocytes; type: cell-based; conditions: significance FPKM ≥1, log 2(fold change) ≥0.5, q-value ≤0.05
Description: Human hepatocytes were obtained from two donors from Massachusetts General Hospital, namely MGH54 and MGH63, and one donor from Lonza, namely HUM4111B. Cryopreserved hepatocytes were cultured in plating media for 16 hours, transferred to maintenance media for 4 hours. Cultured on serum-free media for 2 hours, then a compound was added. The hepatocytes were maintained on the serum-free media for 16 hours prior to gene expression analysis. Primary human hepatocytes were stored in the vapor phase of a liquid nitrogen freezer (about -130° C.). Human hepatocytes cultured as described above were plated in 24-well format, adding 375,000 cells per well in a volume of 500 ul plating medium. Four hours before treatment, cells were washed with PBS and the medium was changed to either: fresh maintenance medium (complete) or modified maintenance medium. Compound stocks were prepared at 1000× final concentration and added in a 2-step dilution to the medium to reduce risk of a compound precipitating out of solution when added to the cells, and to ensure reasonable pipetting volumes. […] The plate was mixed by carefully swirling and after all wells were treated and returned to the incubator overnight. If desired, separate plates/wells were treated with vehicle-only controls and/or positive controls. If using multi-well plates, controls were included on each plate. After about 18 hours, cells were harvested for further analysis, e.g., ChIP-seq, RNA-seq, ATAC-seq, etc. This protocol is a modified version of the following protocols: MagMAX mirVana Total RNA Isolation Kit User Guide (Applied Biosystems #MAN0011131 Rev B.0), NEBNext Poly(A) mRNA Magnetic Isolation Module ([…]), and NEBNext Ultra Directional RNA Library Prep Kit for Illumina ([…]) (New England Biosystems #E74901). […] Two hundred μl of Lysis Binding Mix was used per well of the multiwell plate containing adherent cells (usually a 24-well plate). For mRNA isolation and library prep, the NEBNext Poly(A) mRNA Magnetic Isolation Module and Directional Prep kit was used. RNA isolated from cells above was quantified, and prepared in […] of each sample in 50 μl of nuclease-free water. This protocol may be run in microfuge tubes or in a 96-well plate. […] Genomic alignments were converted to transcriptome alignments based on reference transcript annotations from the Human GENCODE Gene Set release 24 (Harrow et al., Genome Res. […] Using unique and multimapped transcriptomic alignments, gene-level abundance estimates were computed using RSEM version 1.3.0 (Li and Dewey, BMC Bioinformatics (2011) 12:323) in a strand-aware manner, and including confidence interval sampling calculations, to arrive at posterior mean estimates (PME) of abundances (counts and normalized FPKM-fragments per kilobase of exon per million mapped fragments) from the underlying Bayesian model. Standard QC were applied (read integrity, mapping statistics, library complexity, fragment bias) to remove unsatisfactory samples. Differential gene expression was computed using the negative binomial model implemented by DESeq2 version 1.16.1 (Love et al., Genome Biol. (2014) 15(12):550). […] RNA-seq signals were also normalized by read depth and visualized using the UCSC browser. To identify small molecules that modulate target gene expression, primary human hepatocytes were prepared as a monoculture, and at least one small molecule compound was applied to the cells. RNA-seq was performed to determine the effects of the compounds on the expression of the target genes in hepatocytes. Fold change was calculated by dividing the level of expression in the cell system that had been perturbed by the level of expression in an unperturbed system.

| SMILES | NOTCH2 Fold Change (Log2) [1] | SERPINC1 Fold Change (Log2) [2] |
| --- | --- | --- |
| S=C(NCc1ccc2c(c1)OCO2)N1CCN(c2ncnc3c2oc2ccccc23)CC1 [Amuvatinib] | −0.79 Log2 | 1.33 Log2 |
| O=C1CCC(N2C(=O)c3ccccc3C2=O)C(=O)N1 (stereo not shown) [Thalidomide] | −0.68 Log2 | 0.88 Log2 |
